Test results reported in PMC9775153, “Portability of a Small-Molecule Binding Site between Disordered Proteins” (Biomolecules, 2022).
Like-named read-outs stand apart in the source and are kept apart here. One block for each compound: values may come before it.

Tests used:
[1] = system: Myc-Max dimerization; set-up: method as in PMID 13679853; details: cited from earlier work
[2] = system: Max; set-up: method as in PMID 13679853; details: cited from earlier work
[3] = molecular target: T1, Myc402–412 peptide (Homo sapiens, UniProt P01106); set-up: method as in PMID 19022175; details: 20 µM peptide; cited from earlier work
T1 construct: purchased Genscript; host or cells: solid phase peptide synthesis

[4] = Dynamic light scattering (DLS) of 34RH; type: physicochemical; details: for DLS correlation function (nano-sized particles): 1xPBS, 5% DMSO, pH 7.4
Protocol: The small molecule (Z)-4-((4-oxo-2-thioxothiazolidin-5-ylidene)methyl)benzoic acid (hereafter referred to as 34RH) was previously synthesized according to established procedures, and the structure was confirmed by ^1H and ^13C NMR (Figure S6) using a 400 MHz spectrometer. The dry compound was stored at 4 °C. Stock solutions (1 mM) of 34RH were made using either dimethyl sulfoxide (DMSO) or ethanol and stored at −20 °C. Fluorescence and dynamic light scattering (DLS) experiments were performed using DMSO, while circular dichroism (CD) was conducted using ethanol to avoid the high absorbance of DMSO at short wavelengths. DLS measurements were performed on 34RH using an LS Spectrophotometer (LS Instruments) at 25 °C (Figure S3). The dispersant viscosity was set for water. Samples were analyzed in 1xPBS (pH 7.4) and 5% total DMSO. The compound was serially diluted two-fold from 100 μM to a final concentration of 6.25 μM. Samples were placed into 5 mm cylindrical glass cuvettes (LS Instruments) and measured using a 600 nm laser at a 90° angle for 20 s. The data were analyzed using LS Spectrophotometer software provided by the manufacturer.

[5] = molecular target: T2, MaxRH (Homo sapiens, UniProt P61244, K77E/M74V/Q72L/R75Q/R76A/Y73S); assay: Tyrosine fluorescence quenching titration; type: binding; details: for Kd: 1 µM MaxRH, read-out: dissociation constant (KD)
T2 construct: 6xHis tag + TEV site (N, cleaved yes); made in house; host or cells: E. coli BL21(DE3) pLysS
T2 sequence (P61244 whole entry Q72L/Y73S/M74V/R75Q/R76A/K77E): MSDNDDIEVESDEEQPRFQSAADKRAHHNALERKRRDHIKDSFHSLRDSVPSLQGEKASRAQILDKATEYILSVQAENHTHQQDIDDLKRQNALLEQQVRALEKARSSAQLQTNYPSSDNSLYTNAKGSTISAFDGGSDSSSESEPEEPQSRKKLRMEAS
Protocol: (§1) The lyophilized protein (or peptide) was reconstituted in ultrapure water and incubated to room temperature for at least 1 hr. The protein or peptide was then sterile filtered using a pre-wet 0.2 μm polyethylene sulfone (PES) filter (VWR), and the concentration was determined by the absorbance at 274 nm using the extinction coefficient per tyrosine of ε274 = 1470 M^−1cm^−1. The final stock concentrations ranged from 50 to 100 μM.
(§2) For excess 34RH tyrosine fluorescence quenching experiments, samples were prepared with the following buffer components: sterile filtered water, 1xPBS (137 mM NaCl, 2.7 mM KCl, 4.3 mM Na2HPO4, 1.4 mM KH2PO4), and 5% total DMSO. The pH of the buffer was adjusted to 6 or 7.4 depending on the experiment performed. Three separate samples were prepared in 1xPBS and 5% total DMSO: one containing 50 μM 34RH alone, one containing 1 μM of protein and 50 μM 34RH, and one containing 1 μM protein alone. For the 34RH containing samples, the compound was delivered from a 1 mM DMSO stock. These samples were then serially diluted two-fold from 50 μM 34RH to 1.56 μM 34RH. All samples for fluorescence measurements maintained a final 5% DMSO concentration.
(§3) The samples were incubated for at least 15 min before fluorescence was measured. The samples were excited at 274 nm, and the emission spectra were obtained from 285 to 340 nm using 5 nm excitation and 5 nm emission slits using a Horiba Fluoromax 4 fluorometer. The fluorescence data were background corrected using buffer (for samples with only protein) or small molecule (for samples containing protein and 34RH) (Figure S4). The absorbance due to 34RH and protein at the excitation and emission wavelengths can suppress the observed fluorescence intensity to give rise to the inner filter effect. To account for this suppression, we corrected the fluorescence signals using Equation (3). This correction accounted for the fluorescence suppression due to the absorbance of both 34RH and the protein [47]. (3) Fcorr=Fobs∗ 10^Aex+ Aem/2
(§4) Here, the corrected fluorescence is Fcorr, the background-subtracted observed fluorescence is Fobs, and Aex and Aem are the total absorbance at the excitation and emission wavelengths, respectively. The amount of protein fluorescence quenched by 34RH at a particular concentration was calculated using Fcorr at λ = 304 nm (Equation (4)). (4) Fraction Quenched=1−Fcorr304nm of Protein +34RH/ Fcorr304nm of Protein only
(§5) The quenching data were fit to a Langmuir binding isotherm using Equation (5), from which the dissociation constant (KD) was obtained. Here, Qmax describes the maximum fraction quenched, [L]T is the total 34RH concentration, and [P]T is the total protein concentration. The total concentration of the protein was 1 µM for all fluoresce experiments conducted at a constant protein concentration. (5) Fraction Quenched=Qmax∗([L]T+P]T+ KD−(L]T+P]T+ KD)^2−4 ∗ L]T ∗ P]T/2∗[L]T

[6] = molecular target: T1, Myc402–412 peptide; assay: Tyrosine fluorescence quenching titration; type: binding
Protocol: as §1, §2, §3, §4, §5

[7] = molecular target: T3, P21 Max (Homo sapiens, UniProt P61244); assay: Tyrosine fluorescence quenching titration; type: binding; details: 1 µM P21 Max, pH 7.4
T3 construct: 6xHis tag + TEV site (N, cleaved yes); made in house; host or cells: E. coli BL21(DE3) pLysS
T3 sequence (P61244 1-151 isoform P61244-2): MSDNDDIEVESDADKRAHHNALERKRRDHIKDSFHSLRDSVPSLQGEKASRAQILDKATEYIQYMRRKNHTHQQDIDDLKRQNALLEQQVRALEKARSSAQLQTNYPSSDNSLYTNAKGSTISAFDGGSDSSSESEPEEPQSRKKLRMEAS
Protocol: as §1, §2, §3, §4, §5

[8] = molecular target: T4, Myc353–437 A401E (Homo sapiens, UniProt P01106, A416E); assay: Tyrosine fluorescence quenching titration; type: binding; details: Myc353–437 A401E mutant
T4 construct: We constructed Myc353–437 A401E to determine if the same flanking residue would be permissive; 6xHis tag + TEV site (N, cleaved yes); made in house; host or cells: E. coli BL21(DE3) pLysS
T4 sequence (P01106 368-452 A416E): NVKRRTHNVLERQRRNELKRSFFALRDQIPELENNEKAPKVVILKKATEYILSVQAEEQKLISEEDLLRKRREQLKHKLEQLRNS
Protocol: as §1, §2, §3, §4, §5

[9] = molecular target: T5, Myc353–437 E410N (Homo sapiens, UniProt P01106, E425N); assay: Tyrosine fluorescence quenching titration; type: binding; details: Myc353–437 E410N mutant
T5 construct: 6xHis tag + TEV site (N, cleaved yes); made in house; host or cells: E. coli BL21(DE3) pLysS
T5 sequence (P01106 368-452 E425N): as the sequence (P01106 368-452 A416E) above, with E49A, E58N counted along it
Protocol: as §1, §2, §3, §4, §5

[10] = molecular target: T6, MaxRH-Y115F/Y123F (Homo sapiens, UniProt P61244, K77E/M74V/Q72L/R75Q/R76A/Y115F/Y123F/Y73S); assay: Tyrosine fluorescence quenching titration; type: binding; details: 1 µM MaxRH-Y115F/Y123F
T6 construct: 6xHis tag + TEV site (N, cleaved yes); made in house; host or cells: E. coli BL21(DE3) pLysS
T6 sequence (P61244 whole entry Q72L/Y73S/M74V/R75Q/R76A/K77E/Y115F/Y123F): as the sequence (P61244 whole entry Q72L/Y73S/M74V/R75Q/R76A/K77E) above, with Y115F, Y123F counted along it
Protocol: as §1, §2, §3, §4, §5

[11] = molecular target: T7, MaxRH-N78E (Homo sapiens, UniProt P61244, K77E/M74V/N78E/Q72L/R75Q/R76A/Y73S); assay: Tyrosine fluorescence quenching titration; type: binding; details: MaxRH-N78E mutant
T7 construct: 6xHis tag + TEV site (N, cleaved yes); made in house; host or cells: E. coli BL21(DE3) pLysS
T7 sequence (P61244 whole entry Q72L/Y73S/M74V/R75Q/R76A/K77E/N78E): as the sequence (P61244 whole entry Q72L/Y73S/M74V/R75Q/R76A/K77E) above, with N78E counted along it
Protocol: as §1, §2, §3, §4, §5

[12] = molecular target: T8, P22 Max (Homo sapiens, UniProt P61244); assay: Tyrosine fluorescence quenching titration; type: binding; details: 1 µM P22 Max
T8 construct: 6xHis tag + TEV site (N, cleaved yes); made in house; host or cells: E. coli BL21(DE3) pLysS
T8 sequence (P61244 whole entry): as the sequence (P61244 whole entry Q72L/Y73S/M74V/R75Q/R76A/K77E) above, with L72Q, S73Y, V74M, Q75R, A76R, E77K counted along it
Protocol: as §1, §2, §3, §4, §5

[13] = molecular target: T2, MaxRH; assay: Circular dichroism with and without 34RH; details: 1 µM MaxRH, 50 µM 34RH
Protocol: (§6) Samples containing Myc353–437, Myc402–412 peptide, MaxRH, Max isoforms, or mutants in the absence and presence of excess concentrations of 34RH were prepared in 1xCD buffer (50 mM KF, 4.3 mM NaH2PO4, 1.4 mM KH2PO4, 5% ethanol). The pH of the buffer was adjusted to either 6 or 7.4 depending on the experiment conducted. The compound was delivered from a 1 mM ethanol stock solution. Samples were incubated for 1 hr before measurement. The far UV-spectra of the proteins and peptide were recorded in a quartz cuvette with a path length of 0.1 cm using a Jasco J720 spectropolarimeter. The samples were scanned from 270 to 195 nm with an increment of 1 nm, constant bandwidth of 10 nm, and a scanning speed of 1 nm per minute. After subtracting the buffer signal, the raw data in millidegrees was converted to mean residue ellipticity (MRE).

[14] = molecular target: T9, Myc353–437 (Homo sapiens, UniProt P01106); assay: Circular dichroism with and without 34RH; details: 2.5 µM Myc353–437, 50 µM 34RH
T9 construct: 6xHis tag + TEV site (N, cleaved yes); made in house; host or cells: E. coli BL21(DE3) pLysS
T9 sequence (P01106 368-452): as the sequence (P01106 368-452 A416E) above, with E49A counted along it
Protocol: as §6

[15] = molecular target: T3, P21 Max; assay: Circular dichroism with and without 34RH; details: 4 µM P21 Max, 50 µM 34RH, pH 7.4
Protocol: as §6

[16] = molecular target: T6, MaxRH-Y115F/Y123F; assay: Circular dichroism with and without 34RH; details: 1 µM MaxRH-Y115F/Y123F, 50 µM 34RH
Protocol: as §6

[17] = molecular target: T8, P22 Max; assay: Circular dichroism with and without 34RH; details: 1 µM P22 Max, 50 µM 34RH, pH 7.4
Protocol: as §6

[18] = molecular target: T9, Myc353–437; assay: Tyrosine fluorescence quenching titration, excess 34RH; details: 1 µM Myc353–437, excess 34RH, 1xPBS, 25 °C, pH 7.4; Langmuir binding isotherm; read-out: dissociation constant (KD)
Protocol: as §1
For excess 34RH tyrosine fluorescence quenching experiments, samples were prepared with the following buffer components: sterile filtered water, 1xPBS (137 mM NaCl, 2.7 mM KCl, 4.3 mM Na2HPO4, 1.4 mM KH2PO4), and 5% total DMSO. […] All samples for fluorescence measurements maintained a final 5% DMSO concentration.
as §3, with “The samples were excited at 274 nm, and the emission spectra were obtained from 285 to 340 nm using 5 nm excitation and 5 nm emission slits using a Horiba Fluoromax 4 fluorometer.” left out, “(3) Fcorr=Fobs∗ 10^Aex+ Aem/2” left out

[19] = molecular target: T1, Myc402–412 peptide; assay: Circular dichroism with and without small molecule; details: 2.5 µM Myc402–412 peptide, 50 µM 34RH
Protocol: as §6

[20] = Imide pKa determination by UV/Vis; type: physicochemical; details: 1xPBS at various pH values; UV/Vis absorbance at 327 nm, 10 µM 34RH in 1xPBS; read-out: pKa of the imide group of the rhodanine heterocycle
Protocol: The imide pKa of 34RH was determined using UV/Vis by measuring the absorbance of 10 µM of 34RH in 1xPBS at various pH values using an Agilent 8453 UV/Vis spectrophotometer (Figure S2). The absorbance at 327 nm for each pH value was fit to a curve using the Henderson-Hasselbalch (shown in Equations (1) and (2)), where c is the pKa, x is the pH, a is the signal for the fully protonated acid, and b is the signal for the fully ionized base. (1) pKa−pH=log acid/base (2) y=a+b∗10^c−x/1+10^c−x

[21] = molecular target: T9, Myc353–437; assay: Equimolar tyrosine fluorescence quenching titration; details: equimolar Myc353–437 and 34RH, 1x PBS, 25 °C, pH 7.4; 1:1 binding model
Protocol: 5 x 1 05 y = m 1 * x/ ( m 2 + x)
Wavel ength (nm ) [34Rh] µM
Fig S5. Equimolar Myc353-437 and 34RH interaction monitored via tyrosine fluorescence quenching. (A) 50 µM Myc353-437 in the presence (filled black squares) and absence (open black squares) equimolar 34RH in 1x PBS at 25 ℃, pH 7.4. (B) Equilibrium quenching of […]
µM. Error bars represent the standard error of three independent trials. Representative fluorescence signals were inner filter corrected to account for any fluorescence suppression due the absorbance of protein and 34RH [46]. The quenching data was fitted to a binding model shown below described in Dobrev et al.
Fraction Quenched = Q!"# × $
Here, Qmax is the fraction quenched for the formation of the complete complex between Myc353-437 and 34RH. [C]tot is the total concentration of Myc353-437 or 34RH and KD the dissociation constant.

SMILES: CCc1ccc(/C=C2/SC(=S)NC2=O)cc1 [1RH]
effect on Myc-Max dimerization [1]: disrupted Myc-Max dimerization | interaction with Max [2]: not to interact | effect on peptide secondary structure (CD) [3]: induced a substantial shift in the peptide’s secondary structure

DLS correlation function (nano-sized particles) ([4]; 100 µM): a correlation was observed | DLS correlation function (nano-sized particles) ([4]; concentrations below 50 µM): no correlation function | solubility based on dynamic light scattering ([4]; neutral pH): good solubility | Kd ([5]; pH 6): 9.1 ± 3.9 µM | Kd ([5]; pH 7.4): 23.4 ± 1.1 µM | affinity weaker than in the Myc context ([5]; MaxRH vs Myc353–437, pH 7.4): about 6 fold | affinity weaker relative to the peptide ([5]; MaxRH vs Myc402–412 peptide, pH 7.4): ~2 fold | improvement of binding to MaxRH at pH 6 ([5]; pH 6 vs pH 7.4): 2.5 fold | change in affinity, Myc402–412 peptide vs Myc353–437 [6]: 3 fold | difference in affinity between Myc353–437 and Myc402–412 contexts [6]: less than 0.7 kcal mol^−1 | Kd ([6]; 1 µM Myc402–412 peptide, excess 34RH, Langmuir binding isotherm): 11.5 ± 1.2 µM | titratable tyrosine fluorescence quenching (binding) [7]: no titratable quenching | binding by tyrosine quenching [8]: no detectable binding | binding by tyrosine quenching [9]: eliminated binding | Kd [10]: 14.9 ± 1.9 µM | binding by titratable tyrosine quenching [11]: complete loss of observable binding | titratable tyrosine fluorescence quenching (binding) ([12]; pH 6 (monomeric)): no titratable quenching | titratable tyrosine fluorescence quenching (binding) ([12]; pH 7.4): does not exhibit titratable quenching | effect on conformation (CD) ([13]; pH 6): remaining disordered | effect on conformation (CD) ([13]; pH 7.4): did not change the conformation | effect on CD spectrum [15]: no indication of perturbation | effect on conformation (CD) [16]: remains disordered | effect on CD spectrum [17]: does not alter the CD | Kd [18]: 3.9 ± 1.3 µM | pKa [20]: 5.3 ± 0.3 | Kd [21]: 5.9 ± 0.8 µM
SMILES: O=C1NC(=S)S/C1=C\c1ccc(C(=O)O)cc1 [34RH, (Z)-4-((4-oxo-2-thioxothiazolidin-5-ylidene)methyl)benzoic acid]
effect on average conformation (CD) [14]: did not substantially alter the average conformation | effect on structural ensemble (CD) [19]: does not exhibit perturbations to the structural ensemble
